Measurements as given in patent US10080777B2, “Syndecan peptides and polypeptides and uses thereof” (WISCONSIN ALUMNI RESEARCH FOUNDATION, priority 2012, dated 2018).
“Also recorded” adds a separate entry of the source. One block for each molecule: values may come before it. Ends that are not written are not given here.

What was measured:
HaCat keratinocytes = assay: EGF-stimulated scratch wound closure (chemotactic migration) of HaCat keratinocytes; format: cell-based, human; settings: EGF 10 ng/ml
fibroblasts = settings: McFall et al.; cited from earlier work
[1] = tested on: human HaCat keratinocytes or MCF10A mammary epithelial cells; assay: Competition of GST-fusion proteins or synthetic peptides in EGF-stimulated scratch wound migration (FIG. 8 summary); format: cell-based; settings: for competitive activity: FIGS. 8A-C
Description: FIGS. 8A-C. […] GST-fusion proteins or synthetic peptides were added at concentrations ranging from 0.1 to 30 μM to the culture medium of human HaCat keratinocytes or MCF10A mammary epithelial cells in the presence or absence of 20 ng/ml EGF. The ability of the constructs to inhibit the migration of the cells to close a scratch wound in confluent monolayers was determined and express as the concentration of inhibitor necessary to cause 50% inhibition of cell migration. (FIG. 8A) Competition using recombinant GST-fusion proteins. GST-Sdc4 fusion proteins bearing truncations or mutations were assessed for their competitive activity. […] (FIG. 8B) Schematic representation of the active site in Sdc4. The active site is shown as a juxtamembrane site in the ectodomain of Sdc4. TM is the transmembrane domain and CYTO is the cytoplasmic domain. The sequence of a peptide derived from this site ([…]) (SEQ ID NO: 4) is shown along with its homology across other mammalian Sdc4 species (SEQ ID NO: 12) and its homology to Sdc4 derived from zebrafish (SEQ ID NO: 13), identifying highly conserved amino acids at the extreme N- and C-terminus of the peptide. (FIG. 8C) Competition with synthetic peptides. Peptides were purchased from commercial sources for testing as a putative synstatin inhibitory peptide ([…]). Mutation of isoleucine at position 89 to alanine (I89A), or mutation of amino acids 99-108 to alanine (99-108A) reduce the activity by 10-fold. Truncation of amino acids 126-131 at the C-terminus (4126-131) reduces the activity by at least 100-fold.
Wound healing assay. HaCat or MCF10A cells grown to confluence on 48 well-plates were starved for 6 hr by serum deprivation followed by introduction of a scratch wound in the monolayer using 200 μl pipette tip. […] Images were acquired using a PlanApo 20 (0.75 numerical aperture) objective and a Photometrics CoolSnap ES camera on a Nikon Eclipse TE2000U microscopy system and wound closure quantified.

SCC25 cells = assay: Total cell number, CellTiterGLO assay, SCC25; format: cell-based, human; settings: 3-30 μM; combinations each at 10 μM; 4 or 7 days
Description: (§1) FIGS. 9A-F. SSTN treatment of normal (nontransformed) epithelial cells versus carcinoma (transformed) cells. Cells are plated for one day, then treated with either 3-30 μM […] (SSTN-I), 3-30 μM […] (SSTN-E), 3-30 μM SSTNHER2 (SSTN-H) or combinations of the three peptides, each at 10 μM to test their additive effect. […] The treatment times are chosen to reflect only modest effects of the peptides used singly, so that the more pronounced effect of peptides used in combination can still be observed. Treatment for longer times leads to significant cell death observed even with single peptides alone. (FIG. 9A) HaCat human keratinocytes, an example of a normal stratified epithelium, (FIG. 9B) UM-SCC47 cells, a squamous cell carcinoma derived from the tongue of a patient (a stratrified epithelium), (FIG. 9C) SCC25 cells, another squamous cell carcinoma from the tongue of a patient), (FIG. 9D) MCF10A cells, a normal human breast epithelium, (FIG. 9E) MDA-MB-468 cells, a triple-negative (TN) breast carcinoma, and (FIG. 9F) SKBr3 cells, a HER2+ human breast carcinoma. Note that all four carcinomas are inhibited by […], and this is enhanced when […] is combined with the other SSTN peptides, leading to obvious cell death (e.g., the number of cells at the end of the experiment are less than at the beginning).
(§2) Apoptosis assay. […]

MDA-MB-468 cells = assay: Total cell number, CellTiterGLO assay, MDA-MB-468; format: cell-based, human; settings: 3-30 μM; combinations each at 10 μM; 4 or 7 days
Description: as §1, §2

UM-SCC47 cells = assay: Total cell number, CellTiterGLO assay, UM-SCC47; format: cell-based, human; settings: 3-30 μM; combinations each at 10 μM; 4 or 7 days
Description: as §1, §2

MCF10A cells = assay: Total cell number, CellTiterGLO assay, MCF10A; format: cell-based, human; settings: 3-30 μM; 4 or 7 days; normal epithelium
Description: as §1, §2

SKBr3 cells = assay: Total cell number, CellTiterGLO assay, SKBr3; format: cell-based, human; settings: 3-30 μM; combinations each at 10 μM; 4 or 7 days
Description: as §1, §2

[2] = tested on: HaCat human keratinocytes; assay: Total cell number, CellTiterGLO assay, HaCat; format: cell-based; settings: 3-30 μM; 4 or 7 days; normal epithelium
Description: as §1, §2

[3] = tested on: MCF10A mammary epithelial cells
Description: Migration of human MCF10A mammary epithelial cells in response to EGF (10 ng/ml) is tested in 12 hr scratch wound closure assays.
Wound healing assay. HaCat or MCF10A cells grown to confluence on 48 well-plates were starved for 6 hr by serum deprivation followed by introduction of a scratch wound in the monolayer using 200 μl pipette tip. […] To cause EGF-stimulated chemotactic migration that depends on Sdc4, cells were stimulated with EGF (10 ng/ml). Images were acquired using a PlanApo 20 (0.75 numerical aperture) objective and a Photometrics CoolSnap ES camera on a Nikon Eclipse TE2000U microscopy system and wound closure quantified.

[4] = Estimated blood concentration during Alzet pump delivery; format: in vivo, nude (nu/nu) mice; settings: 400 μM in the pump
Description: (§3) FIG. 10. S4ED blocks MDA-MB-468 breast carcinoma growth in vivo. Human MDA-MB-468 breast carcinoma cells were implanted subcutaneously on the flank of nude (nu/nu) mice and allowed to grow for 2 weeks to form palpable tumors (dotted blue line indicates size after 2 weeks). At that time, systemic delivery (0.25 μL/hr) of 400 μM recombinant GST-S4ED, GST alone or saline alone (no treatment) was initiated by surgical implantation of Alzet pumps on the behind the shoulder blades of the animals for 4 wks, followed by replacement with pumps containing fresh protein for an additional 4 wks. Tumor size was measured with calipers at 2 week intervals. Error bars denote S.D., 10 tumors/treatment group.
(§4) The inventor has tested the entire recombinant S4ED protein (as a GST-S4ED fusion protein) as an inhibitor against one of these carcinoma cells (the MDA-MB-468 cells) during tumor growth in immunocompromised nude (nu/nu) mice.

HER2 = molecular target: T1, HER2 (Homo sapiens, UniProt P04626); assay: Capture of HER2 from cell lysates by GST-ectodomain on glutathione beads; format: binding; settings: lysates of EGF-stimulated A431 cells; western blot
T1 construct: endogenous in cells
Description: (§5) (FIG. 6A) Mouse syndecan chimeras in which their ectodomains are switched are expressed in HaCat cells, then immunoprecipitated with antibodies specific for the mouse syndecan ectodomains. […] Also note that these complexes assemble only upon EGF treatment.
(§6) Immunoprecipitation. Immunoprecipitations were carried out as described previously (Beauvais et al., 2004; Beauvais et al., 2006). Cells were washed once with washing buffer (50 mM Hepes, 50 mM NaCl and 10 mM EDTA, pH 7.4) and lysed for 20 min on ice in 1% Triton X-100 containing a 1:1000 dilution of protease inhibitor mixture set III (Calbiochem) in washing buffer. Cell debris was removed by centrifugation at 20,000 g for 15 min at 4° C. Lysates or 6×His-tagged β4 cytoplasmic domain (amino acids 1677-1752) were incubated at 4° C. overnight with 100 μl Glutathione Sepharose 4B beads (50% in IP wash buffer), GST-S4CD or GST-S1CD in present or absent of different peptides. Samples were resolved by electrophoresis under reduced conditions on a 15% Laemmli gel, transferred to Immobilon P, and probed with primary antibody followed by an alkaline phosphatase-conjugated secondary antibody. Visualization of immune-reactive bands was performed using ECF reagent (GE Healthcare) and scanned on a Typhoon Trio Variable Mode Imager (GE-Healthcare) in blue fluorescence. […]

EGFR = molecular target: T2, EGFR (Homo sapiens, UniProt P00533); assay: Capture of EGFR from cell lysates by GST-ectodomain on glutathione beads; format: binding; settings: lysates of EGF-stimulated A431 cells / HaCat cell lysates, western blot
T2 construct: endogenous in cells
Description: as §5, §6

α6β4 integrin = molecular target: T3, α6β4 integrin (Homo sapiens, UniProt P16144+P23229); assay: Capture of α6β4 integrin from cell lysates by GST-ectodomain on glutathione beads; format: binding; settings: re-probed blot, data not shown
T3 construct: endogenous in cells
T3 sequence (P23229 24-1130): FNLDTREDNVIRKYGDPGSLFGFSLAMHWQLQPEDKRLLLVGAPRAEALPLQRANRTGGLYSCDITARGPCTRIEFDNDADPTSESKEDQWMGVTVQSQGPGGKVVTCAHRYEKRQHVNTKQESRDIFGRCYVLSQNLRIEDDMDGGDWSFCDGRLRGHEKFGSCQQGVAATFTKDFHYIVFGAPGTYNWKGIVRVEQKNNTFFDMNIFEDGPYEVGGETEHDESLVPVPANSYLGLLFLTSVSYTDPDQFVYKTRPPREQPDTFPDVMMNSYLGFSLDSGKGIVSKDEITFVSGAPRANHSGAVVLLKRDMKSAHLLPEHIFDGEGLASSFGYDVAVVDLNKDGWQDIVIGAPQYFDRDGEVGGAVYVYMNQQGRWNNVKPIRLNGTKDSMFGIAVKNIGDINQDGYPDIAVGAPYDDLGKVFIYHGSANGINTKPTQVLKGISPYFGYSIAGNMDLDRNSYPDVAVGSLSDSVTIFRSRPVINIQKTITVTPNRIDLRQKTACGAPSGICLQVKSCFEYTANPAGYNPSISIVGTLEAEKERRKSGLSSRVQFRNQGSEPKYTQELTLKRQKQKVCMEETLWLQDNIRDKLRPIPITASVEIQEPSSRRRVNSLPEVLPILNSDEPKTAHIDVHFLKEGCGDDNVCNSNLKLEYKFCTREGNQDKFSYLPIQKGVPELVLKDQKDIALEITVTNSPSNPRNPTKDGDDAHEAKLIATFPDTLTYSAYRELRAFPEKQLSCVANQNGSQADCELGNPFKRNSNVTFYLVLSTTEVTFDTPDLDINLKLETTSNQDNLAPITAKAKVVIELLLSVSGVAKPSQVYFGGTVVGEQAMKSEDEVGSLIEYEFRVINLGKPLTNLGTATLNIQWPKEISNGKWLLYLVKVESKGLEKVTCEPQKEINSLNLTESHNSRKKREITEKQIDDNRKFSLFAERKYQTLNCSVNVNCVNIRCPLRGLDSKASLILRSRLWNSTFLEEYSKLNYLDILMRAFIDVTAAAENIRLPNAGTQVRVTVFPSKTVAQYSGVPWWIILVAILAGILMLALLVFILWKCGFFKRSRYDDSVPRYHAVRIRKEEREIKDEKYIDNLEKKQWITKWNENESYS
T3 sequence (P23229 942-1130 limits assumed): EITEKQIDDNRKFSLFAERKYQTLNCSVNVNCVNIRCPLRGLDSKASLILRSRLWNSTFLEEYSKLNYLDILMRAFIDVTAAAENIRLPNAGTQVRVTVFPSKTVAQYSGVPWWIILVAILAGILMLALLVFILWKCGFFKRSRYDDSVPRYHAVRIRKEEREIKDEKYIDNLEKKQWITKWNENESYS
T3 sequence (P16144 28-1752 isoform P16144-2 limits assumed): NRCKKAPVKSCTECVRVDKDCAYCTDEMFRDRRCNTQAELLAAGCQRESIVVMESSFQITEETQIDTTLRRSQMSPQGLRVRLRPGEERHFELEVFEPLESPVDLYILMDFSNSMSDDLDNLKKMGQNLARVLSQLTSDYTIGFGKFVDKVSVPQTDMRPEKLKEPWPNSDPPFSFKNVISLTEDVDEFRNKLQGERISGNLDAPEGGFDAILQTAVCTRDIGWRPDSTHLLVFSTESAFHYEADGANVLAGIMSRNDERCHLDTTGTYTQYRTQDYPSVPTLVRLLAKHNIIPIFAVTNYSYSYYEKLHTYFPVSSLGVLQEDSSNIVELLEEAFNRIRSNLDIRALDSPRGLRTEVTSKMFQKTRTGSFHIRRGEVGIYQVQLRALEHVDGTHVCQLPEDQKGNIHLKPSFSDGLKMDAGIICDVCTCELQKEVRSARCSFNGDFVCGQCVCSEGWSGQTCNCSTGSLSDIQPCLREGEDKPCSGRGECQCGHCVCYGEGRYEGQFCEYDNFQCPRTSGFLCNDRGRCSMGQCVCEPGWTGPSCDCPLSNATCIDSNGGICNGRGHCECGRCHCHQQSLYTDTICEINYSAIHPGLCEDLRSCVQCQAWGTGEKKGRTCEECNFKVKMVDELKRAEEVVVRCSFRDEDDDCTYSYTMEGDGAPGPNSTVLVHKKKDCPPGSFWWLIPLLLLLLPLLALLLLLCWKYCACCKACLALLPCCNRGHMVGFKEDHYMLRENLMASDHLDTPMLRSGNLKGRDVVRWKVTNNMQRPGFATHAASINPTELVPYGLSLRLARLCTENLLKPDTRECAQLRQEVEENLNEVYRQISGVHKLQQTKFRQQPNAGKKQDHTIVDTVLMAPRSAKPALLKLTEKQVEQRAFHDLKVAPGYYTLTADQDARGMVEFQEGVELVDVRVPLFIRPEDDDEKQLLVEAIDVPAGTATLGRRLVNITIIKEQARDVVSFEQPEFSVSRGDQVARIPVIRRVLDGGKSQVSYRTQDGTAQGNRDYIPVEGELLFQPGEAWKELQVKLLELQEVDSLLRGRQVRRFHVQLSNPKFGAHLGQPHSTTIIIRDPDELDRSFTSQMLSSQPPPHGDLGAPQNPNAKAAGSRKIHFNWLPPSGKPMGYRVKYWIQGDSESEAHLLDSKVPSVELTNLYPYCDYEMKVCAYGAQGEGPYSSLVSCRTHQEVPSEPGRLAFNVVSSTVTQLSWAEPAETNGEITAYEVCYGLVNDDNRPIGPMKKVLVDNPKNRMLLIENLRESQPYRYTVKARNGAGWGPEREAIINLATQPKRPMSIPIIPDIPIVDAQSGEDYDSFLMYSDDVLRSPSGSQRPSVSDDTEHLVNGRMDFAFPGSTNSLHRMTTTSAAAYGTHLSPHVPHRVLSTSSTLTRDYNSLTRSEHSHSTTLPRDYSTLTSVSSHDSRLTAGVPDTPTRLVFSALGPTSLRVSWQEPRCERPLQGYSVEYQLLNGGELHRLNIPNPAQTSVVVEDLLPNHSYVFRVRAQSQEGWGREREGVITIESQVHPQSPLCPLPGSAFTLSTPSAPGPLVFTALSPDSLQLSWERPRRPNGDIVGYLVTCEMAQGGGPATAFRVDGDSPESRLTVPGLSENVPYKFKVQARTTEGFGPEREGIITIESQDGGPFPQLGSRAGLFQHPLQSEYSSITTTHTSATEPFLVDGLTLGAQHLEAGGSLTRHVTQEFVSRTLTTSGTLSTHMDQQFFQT
Description: Immunoprecipitation. Immunoprecipitations were carried out as described previously (Beauvais et al., 2004; Beauvais et al., 2006). Cells were washed once with washing buffer (50 mM Hepes, 50 mM NaCl and 10 mM EDTA, pH 7.4) and lysed for 20 min on ice in 1% Triton X-100 containing a 1:1000 dilution of protease inhibitor mixture set III (Calbiochem) in washing buffer. Cell debris was removed by centrifugation at 20,000 g for 15 min at 4° C. Lysates or 6×His-tagged β4 cytoplasmic domain (amino acids 1677-1752) were incubated at 4° C. overnight with 100 μl Glutathione Sepharose 4B beads (50% in IP wash buffer), GST-S4CD or GST-S1CD in present or absent of different peptides. Samples were resolved by electrophoresis under reduced conditions on a 15% Laemmli gel, transferred to Immobilon P, and probed with primary antibody followed by an alkaline phosphatase-conjugated secondary antibody. Visualization of immune-reactive bands was performed using ECF reagent (GE Healthcare) and scanned on a Typhoon Trio Variable Mode Imager (GE-Healthcare) in blue fluorescence.
The inventor's prior work has shown that Sdc1 contains a site in its extracellular domain to capture the αvβ3 or αvβ5 integrin and the insulin-like growth factor-1 receptor (IGF1-R) (Beauvais et al., 2009; Beauvais & Rapraeger, 2010). […]

[5] = tested on: MDA-MB-468 breast carcinoma; assay: MDA-MB-468 breast carcinoma subcutaneous tumor growth in nude mice, Alzet pump delivery; format: in vivo, nude (nu/nu) mice; settings: 400 μM in pump, 0.25 μL/hr systemic, 8 wks, started 2 weeks after implantation
Description: as §3, §4

Molecule: COc1cc2ncnc(Nc3ccc(F)c(Cl)c3)c2cc1OCCCN1CCOCC1 [Iressa]
- effect on EGF-induced migration / wound closure (in words) (HaCat keratinocytes; 1 μM Iressa): does block wound closure; also recorded: blocked

Molecule: S4ED 78-118: truncated Sdc4 ectodomain, amino acids 78-118 (VVHPLVPLDNHIPERAGSGSQVPTEPKKLEENEVIPKRISP)
- activity as competitor for cell adhesion to full-length S4ED (in words) (fibroblasts): completely inactive
- competitive activity [1]: ca. 10%

Molecule: NHIPERAGSGSQVPTEPKKLEENEVIPKRISPVEESEDVSNKVSM
- growth/survival (total cell number) (SCC25 cells): do target growth/survival mechanisms; also recorded: inhibited
- growth/survival (total cell number) (MDA-MB-468 cells): do target growth/survival mechanisms; also recorded: inhibited
- growth/survival (total cell number) (UM-SCC47 cells): do target growth/survival mechanisms; also recorded: inhibited
- growth or survival (total cell number) (MCF10A cells): no effect
- growth/survival (total cell number) (SKBr3 cells): do target growth/survival mechanisms; also recorded: inhibited
- growth or survival (total cell number) [2]: no effect
- IC50 ([3]; 12 h): 100 to 300 nM
- effect on EGF-stimulated migration/chemotaxis (in words) ([3]; EGF 10 ng/ml, scratch wound closure): blocks
- effect on EGF-induced migration / wound closure (in words) (HaCat keratinocytes): blocks

Molecule: S4ED98-131: truncated Sdc4 ectodomain, amino acids 98-131 (QVPTEPKKLEENEVIPKRISPVEESEDVSNKVSM)
- loss of activity versus S4ED78-131 as competitor for cell adhesion (fibroblasts): 100 fold
- competitive activity [1]: ca. 10%

Molecule: COc1cc(/C=C(\C#N)C(N)=O)cc(CSc2nc3ccccc3s2)c1O [AG825]
- effect on EGF-induced migration / wound closure (in words) (HaCat keratinocytes; 10 μM AG825): not inhibited; also recorded: not by the tyrphostin AG825

Molecule: 4126-131: synthetic peptide with truncation of amino acids 126-131 at the C-terminus (NHIPERAGSGSQVPTEPKKLEENEVIPKRISPVEESEDV)
- reduction of competitive activity, synthetic peptide variants versus peptide 87-131 ([1]; 0.1 to 30 μM, 20 ng/ml EGF, FIG. 8C): at least 100 fold

- capture of HER2 (HER2): captures only EGFR
- capture of EGFR (EGFR): captures
- capture of EGFR (EGFR; listed as S4ED): captures only EGFR
- capture of α6β4 integrin (α6β4 integrin): also captured
B1: GST-S4ED: recombinant Sdc4 ectodomain GST fusion protein (protein)
chain: ESIRETEVIDPQDLLEGRYFSGALPDDEDVVGPGQESDDFELSGSGDLDDLEDSMIGPEVVHPLVPLDNHIPERAGSGSQVPTEPKKLEENEVIPKRISPVEESEDVSNKVSMSSTVQGSNIFERTE
modifications: left off: a dimerising Fc or GST
notes: recombinant Sdc4 ectodomain GST fusion protein
- estimated concentration in the blood [4]: 2 to 3 µM
- block of EGF-stimulated migration ([3]; 10 μM, EGF 10 ng/ml, 12 hr scratch wound closure): 80%
- tumor growth [5]: tumor growth leveling off
- tumor growth ([5]; listed as S4ED): blocks
